# Results published in PubChem BioAssay AID1208 (EPA DSSTox, 2008).
# The source made the active and inactive calls.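 How the source made its calls: active means at least one rat sex group has a carcinogenic potency value and tumor site recorded; inconclusive means only rat studies were judged inadequate by the national testing program; inactive means no potency or tumor site, with negative rat experiments.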
# Test system: rat chronic carcinogenicity bioassay, TD50
# Assay: DSSTox (CPDBAS) Carcinogenic Potency Database Summary Rat Bioassay Results
# Settings: for Potency: stronger effect = lower value; for outcome: TD50_Rat_Note: no positive results
# Outline: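 The activity score maps log10(1/TD50_Rat_mmol) linearly onto 1–100; actives without a computed TD50, such as mixtures, receive 50. Source data are chronic rat carcinogenicity tests, using the most positive experiment for each sex.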
# [1] = TargetSites_Rat_Female: no positive results
# [2] = TD50_Rat_Note: positive test results only by intraperitoneal or intravenous injection
# [3] = TargetSites_Rat_BothSexes: no positive results
# [4] = TD50_Rat_Note: TD50 is harmonic mean of more than one positive test, TargetSites_Rat_Female: liver
smiles,measurement,setting,value
CC(COc1ccccc1)N(CCCl)Cc1ccccc1 (configuration not stated),Potency,"TD50_Rat_Note: positive test results only by intraperitoneal or intravenous injection, TD50 is harmonic mean of more than one positive, TargetSites_Rat_Female: peritoneal cavity",1.09 mg/kg/day
CC1(C)C(=O)NC(=O)NC1=O,outcome,,inactive; no positive results
CC(=O)OC/C=C(C)/C=C/C=C(C)/C=C/C1=C(C)CCCC1(C)C,Potency,"TD50_Rat_Note: TD50 is harmonic mean of more than one positive test, TargetSites_Rat_Female: adrenal gland",125 mg/kg/day
Cc1c(-c2cnccn2)ssc1=S,outcome,[1],inactive; no positive results
Cc1cccc(N)c1,outcome,,inactive; no positive results
Cn1c(N)nc2ncc(-c3ccccc3)cc21,Potency,"TD50_Rat_Note: TD50 is harmonic mean of more than one positive test, TargetSites_Rat_Female: large intestine, mammary gland",1.78 mg/kg/day
COc1ccc([N+](=O)[O-])cc1N,Potency,"TD50_Rat_Note: TD50 is harmonic mean of more than one positive test, TargetSites_Rat_Female: clitoral gland, skin",53.9 mg/kg/day
ClC1=C(Cl)[C@@]2(Cl)[C@@H]3[C@@H](Cl)[C@H](Cl)C[C@@H]3C1(Cl)C2(Cl)Cl,outcome,[1],inactive; no positive results
Cc1ccc(/C(=C\CN2CCCC2)c2ccccn2)cc1,outcome,[1],inactive; no positive results
CN(C)c1ccccc1,Potency,[1],125 mg/kg/day
O[C@H]([C@H](O)[C@@H](O)CBr)[C@H](O)CBr,Potency,[2],8.37 mg/kg/day
Cc1cccc(C)c1N,outcome,,inactive; no positive results
Nc1ccc(Cl)c(N)c1,Potency,[1],315 mg/kg/day
CN(C)CCN(Cc1cccs1)c1ccccc1,outcome,[1],inactive; no positive results
CNCCc1ccc(OC(=O)C(C)C)c(OC(=O)C(C)C)c1,outcome,[1],inactive; no positive results
CC(=O)Nc1nnc(-c2ccc([N+](=O)[O-])o2)s1,Potency,"TargetSites_Rat_Female: hematopoietic system, kidney, lung, small intestine, stomach, vascular system",8.84 mg/kg/day
CNNCc1ccc(C(=O)NC(C)C)cc1,Potency,"TD50_Rat_Note: positive test results only by intraperitoneal or intravenous injection, TD50 is harmonic mean of more than one positive, TargetSites_Rat_Female: hematopoietic system, mammary gland, nervous system",0.351 mg/kg/day
same,Potency,[2],4.01 mg/kg/day
NNC(=O)c1ccncc1,Potency,"TD50_Rat_Note: TD50 is harmonic mean of more than one positive test, TargetSites_Rat_Female: mammary gland",150 mg/kg/day
CN(CCCC(O)c1cccnc1)N=O (configuration not stated),Potency,,0.103 mg/kg/day
CN(C)c1ccc(Cc2ccc(N(C)C)cc2)cc1,Potency,"TD50_Rat_Note: TD50 is harmonic mean of more than one positive test, TargetSites_Rat_Female: thyroid gland",16.4 mg/kg/day
Cc1cc(Cl)ccc1OCC(=O)O,outcome,[1],inactive; no positive results
C1CCCNCCC1,outcome,[1],inactive; no positive results
O=C(OOC(=O)c1ccccc1)c1ccccc1,outcome,[3],inactive
CCCCC(CC)CO (configuration not stated),outcome,[1],inactive; no positive results
OCC(O)CO,outcome,[3],inactive
Nc1ccc(N=Nc2ccc(-c3ccc(N=Nc4c(S(=O)(=O)O)cc5cc(S(=O)(=O)O)c(N=Nc6ccccc6)c(O)c5c4N)cc3)cc2)c(N)c1,Potency,[4],1.39 mg/kg/day
Nc1ccc(Oc2ccc(Cl)cc2)cc1,Potency,,37.6 mg/kg/day
CNC(=S)N(C)C,Potency,TargetSites_Rat_Female: thyroid gland,25.8 mg/kg/day
O=C(O)COc1ccc(Cl)cc1Cl,outcome,[1],inactive; no positive results
O=c1ccc2ccccc2o1,Potency,"TD50_Rat_Note: TD50 is harmonic mean of more than one positive test, greater than ten-fold variation among TD50 values for positive res, TargetSites_Rat_Female: liver",39.2 mg/kg/day
CCOCCc1c(-c2ccccc2)nc(N)n2ncnc12,Potency,"TD50_Rat_Note: TD50 is harmonic mean of more than one positive test, TargetSites_Rat_Female: liver, mammary gland",548 mg/kg/day
COc1cc(OC)c2c3c(c(=O)oc2c1)CCC3,outcome,,inactive; no positive results
CCO,Potency,[1],9110 mg/kg/day
C[N+](C)(C)CCO,outcome,,inactive; no positive results
O=P1(NCCCl)OCCCN1CCCl (configuration not stated),Potency,"TD50_Rat_Note: positive test results only by intraperitoneal or intravenous injection, TargetSites_Rat_Female: uterus",0.739 mg/kg/day
S=C=NCCCc1ccccc1,outcome,,inactive; no positive results
O=[N+]([O-])c1ccc2c(c1)Cc1ccccc1-2,Potency,,0.285 mg/kg/day
ClCc1ccccc1,outcome,[1],inactive; no positive results
c1cc(OCC2CO2)cc(OCC2CO2)c1 (configuration not stated),Potency,"TD50_Rat_Note: TD50 is harmonic mean of more than one positive test, TargetSites_Rat_Female: stomach",3.78 mg/kg/day
O=C1CCCO1,outcome,[1],inactive; no positive results
Cc1ccc(-c2cc(C(F)(F)F)nn2-c2ccc(S(N)(=O)=O)cc2)cc1,outcome,,inactive; no positive results
CN(C)C(=S)SSC(=S)N(C)C,outcome,[1],inactive; no positive results
Cn1cnc([N+](=O)[O-])c1Sc1ncnc2nc[nH]c12,outcome,[1],inactive
CCCCCN(CCCCC)N=O,Potency,[4],4.03 mg/kg/day
Nc1ccc(-c2ccc(N)cc2)cc1,Potency,"TargetSites_Rat_BothSexes: hematopoietic system, liver, mammary gland",1.73 mg/kg/day
CN(C)c1ccc(C(=N)c2ccc(N(C)C)cc2)cc1,Potency,,11 mg/kg/day
